Results on two compounds are retold here after patent US10577381B2, “Prodrugs of 2,4-pyrimidinediamine compounds and their uses” (Rigel Pharmaceuticals, Inc., priority 2005, dated 2020).

In brackets after ≈: the same amount, converted by molar mass. Entries after “also recorded” stand apart in the source; their conditions may differ. Like-named read-outs stand apart in the source and are kept apart here.

The conditions of data set [1]: rat, in vivo.
In data set [2] the test system is collagen-induced arthritis. Description: Collagen-induced arthritis (CIA). In kind it is in vivo, Syngeneic LOU rats. An excerpt:
One of the experimental models for IC-mediated tissue injury is the CIA in rodents (Kleinau et al., 2000, J. Exp. Med. 191:1611-1616). Injection of type II collagen (CII) into rodents produces an immune reaction that characteristically involves inflammatory destruction of cartilage and bone of the distal joints with concomitant swelling of surrounding tissues. CIA in rats is commonly used to evaluate compounds that might be of potential use as drugs for treatment of rheumatoid arthritis and other chronic inflammatory conditions and is induced in susceptible strains of either mice or rats by injection of CII in incomplete Freund's adjuvant (IFA). Administration of this emulsion gives rise to polyarthritis, characterized by synovial hyperplasia, infiltration of mononuclear cells, pannus formation, and destruction of cartilage and bone. […] Syngeneic LOU rats were immunized on Day 0 with native chicken CII/IFA. Oral treatment began at the onset of arthritis symptoms (Day 10). […] Hind limbs were scored daily for clinical arthritis severity using a standardized method based on the degree of joint inflammation. High resolution digital radiographs of hind limbs were obtained at the conclusion of the study (Day 28). These limbs were also analyzed for histopathologic changes. IgG antibodies to native CII were measured in quadruplicate by ELISA. […] Brahn. 2004). Blinded composite histopathologic studies confirmed the regression of pannus and erosions: […] Antibodies to native CII were not decreased in Compound 1-treated rats.

The nature of data set [3]: Safety pharmacology: CNS (Irwin) study. The format is in vivo. Conditions: 50 mg/kg. As to the method: (§1) GLP toxicology studies included negative mutagenicity and clastogenicity studies (Ames, chromosomal aberration, and mouse micronucleus). […] The No Observed Adverse Effect Level (NOAEL) is 10-30 mg/kg/day for rats and 100 mg/kg/day for monkeys.
Data set [4] relates to IC-mediated vascular edema (Arthus reaction). Description: Reverse Passive Arthus (RPA) reaction. The format is in vivo, rat. An excerpt: IC-mediated acute inflammatory tissue injury is implicated in a variety of human autoimmune diseases, including vasculitis, serum sickness, systemic lupus erythematosus, RA, and glomerulonephritis. The classical experimental model for IC-mediated tissue injury is the Reverse Passive Arthus (RPA) reaction. Intravenous injection of antigen (ovalbumin, OVA) following intradermal injection of antibodies specific to OVA (rabbit anti-OVA IgG) results in perivascular deposition of IC and a rapid inflammatory response characterized by edema, neutrophil infiltration, and hemorrhage at the injection sites (Szalai, et al., 2000, J. Immunol. 164(1):463-468).

The conditions of data set [5]: monkey, in vivo. Here is the method:
as §1

The test system of data set [6] is Cord-Blood Derived Primary Human Mast Cells (CHMC). As to the kind of experiment: FcεRI-dependent activation of CHMC, tryptase released upon degranulation. The note with it: Mast cell, activity of tryptase released upon degranulation. The format is cell-based.
The test system of data set [7] is collagen antibody-induced arthritis. Description: Collagen antibody-induced arthritis (CAIA). The format is in vivo, Balb/c mice. An excerpt: This passive model differs from the traditional rodent collagen-induced arthritis (CIA) in that disease symptoms appear quickly (developing within 24-48 hrs after an IV-injection of antibodies), arthritis is inducible in both CIA-susceptible and CIA-resistant mouse strains, and it allows evaluation of inflammation that is independent of antibody production. CAIA was induced in Balb/c mice by intravenous injection of Arthrogen-CIA® Monoclonal Antibody Blend (Chemicon International, Inc., Temecula, Calif.) via the tail vein, followed 2 days later by an intraperitoneal injection of LPS. […] The severity of the arthritis in hind-paws was scored daily (scale of 0-4 per paw, sum of scores for both hind paws).

The nature of data set [8]: GLP mutagenicity and clastogenicity studies (Ames, chromosomal aberration, mouse micronucleus). Here is the method: as §1
A further data set deals with LTC4. Description: FcεRI-dependent production and release of LTC4. The format is cell-based. Conditions: Homo sapiens.
The nature of data set [9]: Safety pharmacology: cardiovascular study. The format is in vivo. Conditions: 50 mg/kg. Here is the method: as §1
A further data set has as its system cytokines. As to the kind of experiment: FcεRI-dependent production and release of cytokines. The format is cell-based. The note with it: Homo sapiens; range over cytokines; read-out: EC50, FcεRI-dependent production and release of all cytokines tested.
A further data set deals with CHMCs. Description: Ionomycin-induced degranulation of CHMCs. The format is cell-based, Human.
Data set [10] is described as follows: Water solubility in aqueous buffer. The format is physicochemical.
Data set [11] in a line: Pharmacokinetics after IV and oral dosing in rats. In kind it is in vivo, Sprague-Dawley rats. As to the method:
Prodrug Compound 4 was tested for oral bioavailability. For the study, the prodrug was dissolved in various vehicles (e.g. PEG 400 solution and CMC suspension) for intravenous and oral dosing in the rats. […] Following administration of the prodrug and/or drug, plasma samples were obtained and extracted. The plasma concentrations of the prodrug and/or drug were determined by high performance liquid chromatography/tandem mass spectrometry (LC/MS/MS) methods. Pharmacokinetic analyses were performed based on the plasma concentration data. The pharmacokinetic parameters of interest include Clearance (CL), Volume of distribution at steady-state (Vss), terminal half-life (t1/2), and oral bioavailability (% F).
Referring to FIG. 4, PK profiles are shown for IV and PO administration in Spraque-Dawley rats. For IV administration, Compound 4 was dissolved in PEG-400 and administered at a dose of 1 mg/kg.
FIG. 5 summarizes the PK parameters for the study described in FIG. 4.
FIG. 11 illustrates the absorption of prodrug Compound 4 from different vehicles.

The nature of data set [12]: Stability under acidic and neutral conditions at 37° C. The format is physicochemical. Conditions: FIG. 8.
Data set [13] is described as follows: Stability / hydrolysis in rat plasma. In kind it is in vitro ADME. The note with it: FIG. 10. From the text: (§2) Although phosphate-containing prodrugs suitable for oral administration are of interest, skilled artisans will appreciate that prodrugs including phosphate-containing progroups R^p can be administered via other routes of administration, as phosphatases are distributed throughout the body. […] Thus, the only requirement is that the particular phosphate-containing progroup R^P selected should be removable under the conditions of intended use.
The presence of Phosphatase activity in rat plasma was confirmed using p-nitrophenyl phosphate—a known substrate for phosphatase.

Data set [14] can be described thus: Conversion of prodrug to drug in microsome preparations. In kind it is in vitro ADME, rat.
Text: as §2

Setting [15] is: water solubility, aqueous buffer under physiological conditions, read-out: Solubility.

For the compound `COc1cc(Nc2ncc(F)c(Nc3ccc4c(n3)NC(=O)C(C)(C)O4)n2)cc(OC)c1OC` [Compound 1, N4-(2,2-dimethyl-3-oxo-4H-5-pyrido[1,4]oxazin-6-yl)-5-fluoro-N2-(3,4,5-trimethoxyphenyl)-2,4-pyrimidinediamine], in data set [1], the “CD45RA+ cells (immunophenotyping)” value is reported as “significant increase”; the Histopathology result is listed as “mild reductions in marrow cellularity”; the “effect on hematology, liver transaminase (mild), spleen and thymus size, bone marrow cellularity” value is “reversible effect”; the “humoral immunity, anti-KLH antibody assessment” value is reported as “no evidence for untoward effects”. Moreover, the “percentage of CD3+ cells (immunophenotyping)” value in [1] is reported as “significant decrease”. Further, the arthritis severity result in [2] (30 mg/kg q.d. p.o., evident within 7 days after initiation of therapy, p<0.05) was “significant reduction”. Further, the “Mean modified Mankin scores (histopathology, pannus and erosions)” value in data set [2] (30 mg/kg, p<0.001 vs vehicle) came to 3.7±0.9. Besides, the clinical score in data set [2] (Day 28, 30 mg/kg q.d. p.o., p<0.001 vs vehicle) came to 2.54±0.98. The “joint damage, blinded radiographs” value in data set [2] (Day 28, p<0.02 vs vehicle) was found to be 1.63±0.67. In [3], the behavioral effect entry is reported as “slight effect on a few behavioral parameters”. Besides, the inhibition – broadly, the relative decrease from the control value, in per cent – at 10 mg/kg in [4] (Rattus norvegicus, 10 mg/kg oral, compared with vehicle control, read-out: inhibition of extravascular leakage of Evans blue dye (OD610) from tissue biopsies) was 80%. For the same compound, the “cutaneous RPA reaction and inflammatory edema” value in data set [4] (single oral treatment one hour prior to antigen/antibody administration) is “reduced the cutaneous RPA reaction and inflammatory edema in a dose-dependent manner”. Further, in data set [5], the “effect on hematology and bone marrow cellularity” value was “reversible effect”. Moreover, the EC50 – broadly, the concentration giving half of the maximal effect – in data set [6] is around 0.043 µM. In data set [7] (lower dose levels, differences not significant (p>0.05)), the “arthritis severity, disease incidence, time of onset” value is “trend toward reduced arthritis severity, disease incidence, and time of onset”. In data set [7] (oral, b.i.d., p<0.05), the “clinical arthritis vs vehicle” value was “significantly reduced clinical arthritis”. In data set [8], the mutagenicity and clastogenicity entry is recorded as “negative”. The compound further displayed an EC50 with LTC4 of 0.039 µM. For the same compound, in [9], the cardiovascular effect result was “slight reduction in heart rate and increase in RR interval”. In the data set on cytokines, the EC50 is 0.158 to 0.462 µM. Also, the “inhibition of ionomycin-induced degranulation” value with CHMCs is recorded as “does not inhibit”. Further, in [10] (aqueous buffer, phosphate buffer at pH=7.5, data not shown, read-out: measured solubility), the solubility (usually the concentration that dissolves in the medium under given conditions) is below 1 µg/mL. Moreover, in data set [10] (setting [15]), the solubility lay in the range of 1 to 2 µg/mL (≈ 2.13 to 4.25 µM).

Take `COc1cc(Nc2ncc(F)c(Nc3ccc4c(n3)N(COP(=O)(O)O)C(=O)C(C)(C)O4)n2)cc(OC)c1OC` [Compound 4, N4-(2,2-dimethyl-4-[(dihydrogenphosphonoxy)methyl]-3-oxo-5-pyrido[1,4]oxazin-6-yl)-5-fluoro-N2-(3,4,5-trimethoxyphenyl)-2,4-pyrimidinediamine]: the “plasma levels of drug metabolite Compound 1 after dosing prodrug” value in [11] (Compound 4 given orally in PEG-400) was “high levels”. Besides, the “disappearance / clearance of prodrug from plasma” value in data set [11] (IV, 1 mg/kg in PEG-400, 1 mg/kg) is “Rapid disappearance; also recorded: rapidly cleared”. Moreover, in data set [11] (given orally in PEG-400), the “systemic presence of prodrug after oral dosing” value is listed as “no prodrug Compound 4 was present systemically”. Moreover, in [11] (oral, Compound 1 2.5 mg/kg in PEG-400 vs Compound 4 4 mg/kg in PEG-400, FIG. 6), the “AUC/dose of drug Compound 1 exposure (absorption), prodrug vs drug” value is “nearly identical”. Also, in [11] (oral, rats, PEG-400 and carboxymethylcellulose solutions, powder in hard gelatin capsules, FIG. 11), the “absorption from different vehicles” value is given as “absorbed equally well; also recorded: not dependent on formulation”. In data set [12], the stability of prodrug result is “stable”. Also, the “stability in rat plasma, hydrolysis to drug Compound 1” value in [13] is given as “metabolize to the active drug Compound 1; also recorded: unstable”. Moreover, the “conversion of prodrug Compound 4 to drug Compound 1” value was “failed to convert” in data set [14] (microsomal preparations obtained from Xenotech, FIG. 9); “metabolize to the active drug Compound 1; also recorded: conversion of Compound 4 to Compound 1 was observed” in data set [14] (rat intestinal and hepatic microsomes from a different source (data not shown)). Besides, the “Solubility of prodrug relative to active drug Compound 1” value in data set [10] (same conditions, Compound 4 vs Compound 1) is reported as “approximately 2000 times”. Besides, the solubility in [10] (setting [15]) was above 5000 µg/mL.
